Ends that are not written are not given here.
Columns and labels:
Type in all cases: physicochemical
[1] = Visual appearance of solution
[2] = Visual appearance of solution; remark: listed apart in the source
Experimental: The remainder of the peptide suspension was diluted to an assumed concentration of 5 mg/mL and 4*1 mL samples were adjusted to pH 2, 4, 6 and 8, (see FIG. 2). All 4 vials continued to be opaque indicating limited solubility.
Approximately 16 mg/mL AnxA1 was added to milliQ® water. The resulting pH was 7.5. pH was adjusted to pH 10 in one sample using 0.1 M NaOH and to pH 2 using 0.1 M HCl in another sample, according to table 3. The appearance of the solution was noted. At pH≥7.4 the solution was clear. At pH≤7.1>2.6 solutions where unclear. At pH≤2.6 the solution was again clear. Data are summarized the Table 3, see also FIG. 5.
AnxA1 samples are dissolved in Milli Q® water or 5% mannitol in Milli Q® water to approximately 18 mg/mL and pH was adjusted using 1.0 M HCl and NaOH. After dissolution visual appearance was noted and a photograph was taken, see FIG. 6 and Table 4, and a sample was cleared by centrifugation and the concentration determined in the supernatant using UV-VIS spectroscopy.
Isotonic samples containing 1.5-1.6 mg/mL AnxA1 and a tonicity provider (isotonicity modifier) was prepared around neutral pH according to the specification in table 5. […] The samples were subjected to the ThT assay previously described, where a higher lag-time was observed when using sucrose and mannitol as tonicity providers compared to using trehalose and glucose. The data presented in Table 5 is illustrated graphically in FIG. 7.

Dissolution time = experiment: Dissolution time
Experimental: The peptide was initially wetted with a small amount of solvent and left for 5 minutes and following added the full amount of solvent. The solution was swirled by hand and observation of final dissolution time noted.
1.6 or 3.2 mg AnxA1 was added to Milli Q® water at around neutral pH containing different salts (NaCl, CaCl2, ZnCl2 or HCl) according to table 2. Dissolution times was observed and the resulting solutions was analyzed using the ThT assay.

## AMVSEFLKQAWFIENEEQEYVQTLKSSKGGPGSAVSPYPTFNPSSDV-NH2 [AnxA1]
[1]; 20 mg AnxA1 per mL 0.9% NaCl, neutral pH, after over night at room temperature on rotation
  appearance: opaque gel like substance
[1]; AnxA1 3.3, 1.6 and 0.8 mg/mL in Milli Q water, 0.9% NaCl (154 mM), at pH 6.0
  appearance: opaque
[1]; AnxA1 3.3, 1.6 and 0.8 mg/mL in Milli Q water, 0.9% NaCl (154 mM), immediately below pH 6.0
  appearance: precipitated
[2]; AnxA1 1.5 mg/mL, glucose 5 wt.%, pH 7.1
  Visual appearance: Clear
[2]; AnxA1 1.6 mg/mL, mannitol 5 wt.%, pH 6.7
  Visual appearance: Clear
[2]; AnxA1 1.6 mg/mL, sucrose 10 wt.%, pH 7.2
  Visual appearance: Clear
[2]; AnxA1 1.6 mg/mL, trehalose 10 wt.%, pH 7.2
  Visual appearance: Clear
[2]; all isotonic samples, 1.5-1.6 mg/mL AnxA1 and a tonicity provider, around neutral pH
  Visual appearance: clear solutions
[2]; approximately 16 mg/mL AnxA1 in milliQ water, pH 2.6-2.0
  Description (visual appearance): Clear solution
[2]; approximately 16 mg/mL AnxA1 in milliQ water, pH 3.8-3.1
  Description (visual appearance): Starts clearing up
[2]; approximately 16 mg/mL AnxA1 in milliQ water, pH 6.1-4.2
  Description (visual appearance): Gel-like
[2]; approximately 16 mg/mL AnxA1 in milliQ water, pH 6.8-6.3
  Description (visual appearance): Milky, turbid
[2]; approximately 16 mg/mL AnxA1 in milliQ water, pH 7.1
  Description (visual appearance): Fluffy particles
[2]; approximately 16 mg/mL AnxA1 in milliQ water, pH ≥7.4
  Description (visual appearance): clear solution
[2]; approximately 16 mg/mL AnxA1 in milliQ water, pH≤7.1>2.6
  appearance of the solution: unclear
[2]; approximately 18 mg/mL AnxA1, pH 2, 4 and 6, with and without 5% mannitol in Milli Q water
  Visual appearance: unclear and or viscous solution
[2]; approximately 18 mg/mL AnxA1, pH 8 and 10, with and without 5% mannitol in Milli Q water
  Visual appearance: clear solution
[2]; assumed 5 mg/mL AnxA1 in Milli Q water, 0.9% NaCl (154 mM), adjusted to pH 2, 4, 6 and 8
  appearance: opaque
Dissolution time; 20 mg freeze-dried AnxA1 per mL 0.9% NaCl (154 mM) in Milli Q at neutral pH
  dissolution: not readily dissolved
Dissolution time; AnxA1 1.5 mg/mL, NaCl 0.9%, ZnCl2 0.77 mM, pH N/A, after more than 2 hours
  Dissolution time (Notes): not fully solubilized
Dissolution time; AnxA1 1.6 mg/mL in Milli Q water, no salt, pH 7.5
  Dissolution time (Notes): 5 min
Dissolution time; AnxA1 1.6 mg/mL in Milli Q water, no salt, pH 7.6
  Dissolution time (Notes): 5 min
Dissolution time; AnxA1 1.6 mg/mL, CaCl2 0.77 mM, pH 7.2
  Dissolution time (Notes): 5 min
Dissolution time; AnxA1 1.6 mg/mL, CaCl2 0.77 mM, pH 7.4
  Dissolution time (Notes): 10 min
Dissolution time; AnxA1 1.6 mg/mL, NaCl 0.9%, CaCl2 0.77 mM, pH 7.1
  Dissolution time (Notes): 35 min
Dissolution time; AnxA1 3.2 mg/mL, NaCl 0.9%, pH 7.2
  Dissolution time (Notes): 45 min
Dissolution time; Milli Q water around neutral pH, no addition of salt
  dissolution time: less than 5 minutes

— US20240041977A1, “ANNEXIN A1 N-TERMINAL PEPTIDE FORMULATIONS AND METHODS” (ResoTher Pharma A/S, priority 2020, published 2024)
